Earlier results, collected in PMC11667226 (Theranostics, 2025).

System: EGFR
Details: microscopic histopathology as reference; ref Van Keulen et al. [36]; cited from earlier work
Source text: Van Keulen et al. reported a 95% sensitiv ...

For “panitumumab-IRDye800: antibody-based optical imaging agent targeting EGFR”, the “Sensitivity for detection of inadequate margins (< 5mm)” value is listed as 95% and the “Specificity for detection of inadequate margins (< 5mm)” value is listed as 89%.
